Measured values from EP2573089A1, “Novel artmisinin derivatives” (Spago Imaging AB, priority 2011, dated 2013).

Assay type: physicochemical
Conditions: for area of the main peak has decreased: after 72h at pH = 2.3, sodiumphosphate buffer, HPLC-ELSD
Description: Example 11. The acid stability of four dihydroartemisinin (DHA) derivatives was investigated. […] Phenomex Luna; 50 x 4.6 mm, 3 μ C18. ACN/H2O; 60/40 at 1.0 ml/min DHA dissolved in mob. phase to give 0,21 mg/ml Compound of formula 1, n=4 (3PEG-DHA) dissolved in H2O to give 0.48 mg/ml in 0.1 M buffer. […] Artemisone dissolved in mob. phase to give 0.20 mg/ml in 0.1 M buffer, Artesunate dissolved in mob. phase to give 0.24 mg/ml in 0.1 M buffer. 20 μ[…]

SMILES | degradation | area of the main peak has decreased | degraded (72 h, 0.24 mg/ml, pH 2.3) [%]
C[C@H]1[C@H](N2CCS(=O)(=O)CC2)O[C@@H]2O[C@@]3(C)CC[C@H]4[C@H](C)CC[C@@H]1[C@@]24OO3 [artemison, artemisone] | No sign of degradation | about 71% | 
C[C@H]1[C@H](OC(=O)CCC(=O)O)O[C@@H]2O[C@@]3(C)CC[C@H]4[C@H](C)CC[C@@H]1[C@@]24OO3 [artesunate] | No sign of degradation | about 40% | 41
